In article PMC12586598, “A novel long-acting C5a-blocking cyclic peptide prevents sepsis-induced organ dysfunction via effective blockade of the inflammatory cascade” (Signal Transduction and Targeted Therapy, 2025):
Where a SMILES comes first, the peptide text is derived from it.

Key:
mouse C5 = target: T1, mouse C5 (Mus musculus, UniProt P06684); experiment: SPR binding affinity assay, immobilized mouse C5
T1 construct: purchased ACROBiosystems
Method: Surface plasmon resonance (SPR) analysis was conducted using Biacore 2000 system (GE Healthcare, Germany) at 37°C in running buffer (20 mM Tris-HCl, pH 7.4, 150 mM NaCl, 5 mM KCl, 1 mM MgCl₂, 1 mM CaCl₂). The CM5 sensor chips (GE Healthcare) were activated with NHS/EDC, followed by immobilization of mouse C5a (ACROBiosystems, Beijing, China), human C5a (ACROBiosystems, Beijing, China), mouse C5 (ACROBiosystems, Beijing, China) or mouse C5a-desArg (MCE, Shanghai, China). The peptide-protein interactions were characterized using a concentration-gradient approach (low to high) with a continuous flow rate of 30 μL/min (150 s injection duration). Between analyte concentrations, the sensor surface was regenerated with 10 mM glycine-HCl (pH 2.0; 5 min treatment). Binding and dissociation constants were obtained by globally fitting the data to a 1:1 Langmuir binding model using a Biacore Insight evaluation software (Cytiva, USA).

[1] = target: T2, Cy5-labeled mouse C5a protein (Mus musculus, UniProt P06684); experiment: Competitive binding assay by FCM (Cy5-C5a on mouse neutrophils); type: cell-based; conditions: high (1 μg/mL) or low (10 ng/mL) concentrations
T2 construct: 10 ng of Cy5-labeled mouse C5a protein (MCE, Shanghai, China); purchased MCE; host or cells: mouse peripheral blood neutrophils (endogenous receptor)
T2 sequence (P06684 679-755): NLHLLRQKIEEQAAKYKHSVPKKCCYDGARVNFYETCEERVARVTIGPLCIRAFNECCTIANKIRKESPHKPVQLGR
Method: For the validation of peptide affinity for C5a. Peripheral blood neutrophils from the mice were isolated via density gradient centrifugation (Solarbio P9201, Beijing, China). A total of 10 ng of Cy5-labeled mouse C5a protein (MCE, Shanghai, China) was preincubated with linear peptides or cyclic peptides (10 or 100 ng) at room temperature for 0.5 h. Subsequently, 2×10^5 mouse neutrophils were incubated with Cy5-labeled mouse C5a or Cy5-labeled mouse C5a/peptide complexes at 4 °C for 0.5 h in the dark, followed by centrifugation, washing with PBS and flow cytometric analysis (Sony ID7000™, Japan).

C5a-C5aR1 = target: T3, C5a-C5aR1 (Homo sapiens, UniProt P01031); experiment: Validation of Cp1-specific blockade of C5a-C5aR1 by flow cytometry on PMNs; type: cell-based; conditions: resting and TNF-α activated PMNs, Cy5-C5a
T3 construct: 10 ng of Cy5-labeled human C5a (MCE, Shanghai, China); purchased MCE; host or cells: PMNs from Oribiotech Co., Ltd. (endogenous receptor)
T3 sequence (P01031 678-751): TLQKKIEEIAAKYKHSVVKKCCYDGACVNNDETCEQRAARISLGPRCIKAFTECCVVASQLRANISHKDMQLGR
Method: To validate the Cp1-specific blockade of C5a-C5aR1. PMNs isolated by flow cytometric sorting from Oribiotech Co., Ltd. (Shanghai, China) were preincubated with C5aR1-antibody (5 μg), C5aR2-antibody (5 μg), Cp1 (10 μg), Cp1 (10 μg)+C5aR1-antibody (5 μg) or Cp1 (10 μg)+C5aR2-antibody (5 μg) at room temperature for 0.5 h, followed by incubation with 10 ng of Cy5-labeled human C5a (MCE, Shanghai, China) at 4 °C for 0.5 h in the dark. The samples were subsequently centrifuged, washed with PBS and detected via flow cytometry. PMNs were stimulated with 10 ng/mL TNF-α for 12 hours to perform competitive binding assays under activated conditions.

CLP model mice = experiment: cfDNA and neutrophil elastase in plasma of CLP mice; type: in vivo, mouse; conditions: 100 μg/20 g, 24 h after CLP surgery, relative to Sham set as 0%
Method: To determine the levels of cfDNA and elastase in plasma, blood samples were collected, and plasma was prepared 24 h after CLP surgery. cfDNA was extracted via the VAHTS Serum/Plasma Circulating DNA Kit (Vazyme, Nanjing) and quantified via qPCR. Elastase was quantified via an NE ELISA Kit (Cusabio, Wuhan).

CLP-induced septic mice [2] = experiment: Inflammatory factors and chemokines in plasma, Luminex, CLP mice; type: in vivo, mouse
Method: (§1) Twenty-four hours later, whole blood and PLF were collected under anesthesia. The plasma and PLF supernatants were further isolated via centrifugation (3000 × g, 10 min, 4 °C) and subjected to inflammatory factor and chemokine profiling via the Luminex® multiplex […] Biotechnologies, Shanghai, China). The percent inhibition was calculated relative to that of the sham group (set as 0%).

CLP-induced septic mice [3] = experiment: Inflammatory factors and chemokines in PLF, Luminex, CLP mice; type: in vivo, mouse
Method: as §1

CLP-induced septic mice [4] = experiment: Organ function, coagulation and lung histology in CLP mice; type: in vivo, mouse; conditions: 24 h post-CLP surgery
Method: The cecal ligation and puncture (CLP) model was established in male C57BL/6 mice (9-10 weeks old). Briefly, a midline laparotomy was performed to exteriorize the cecum under general anesthesia. The cecum was ligated at the distal three-quarters using sutures. Subsequently, a single through-and-through puncture was made in the ligated segment using a 22-gaμge needle, followed by small volume of fecal content was gentle extrusion. The cecum was then repositioned within abdominal cavity, and the laparotomy incision was closed in layers. All animals were administered 1 mL of sterile saline for postoperative fluid resuscitation. Sham-operated controls underwent identical surgical procedures without cecal ligation or puncture. In this work, mice received administration via intravenous injection 1 hour after CLP surgery. The animal mortality was determined by the presence of confirmed death. […] Blood samples were collected 24 hours after CLP-modeling for hematological analysis (Mindray BC-60R Vet) and biochemical analysis (Mindray BS-240 Vet, China), endothelial injury analysis (Njjcbio, Nanjing) and coagulation analysis (Legene, Beijing). Subsequently, mice were sacrificed to collect the main organs for morphological and pathological analysis.

[5] = 100 μg/20 g, 24 h after CLP surgery
[6] = 100 μg/20 g, 24 h after CLP, relative to Sham set as 0%

T1 sequence (P06684 19-1680): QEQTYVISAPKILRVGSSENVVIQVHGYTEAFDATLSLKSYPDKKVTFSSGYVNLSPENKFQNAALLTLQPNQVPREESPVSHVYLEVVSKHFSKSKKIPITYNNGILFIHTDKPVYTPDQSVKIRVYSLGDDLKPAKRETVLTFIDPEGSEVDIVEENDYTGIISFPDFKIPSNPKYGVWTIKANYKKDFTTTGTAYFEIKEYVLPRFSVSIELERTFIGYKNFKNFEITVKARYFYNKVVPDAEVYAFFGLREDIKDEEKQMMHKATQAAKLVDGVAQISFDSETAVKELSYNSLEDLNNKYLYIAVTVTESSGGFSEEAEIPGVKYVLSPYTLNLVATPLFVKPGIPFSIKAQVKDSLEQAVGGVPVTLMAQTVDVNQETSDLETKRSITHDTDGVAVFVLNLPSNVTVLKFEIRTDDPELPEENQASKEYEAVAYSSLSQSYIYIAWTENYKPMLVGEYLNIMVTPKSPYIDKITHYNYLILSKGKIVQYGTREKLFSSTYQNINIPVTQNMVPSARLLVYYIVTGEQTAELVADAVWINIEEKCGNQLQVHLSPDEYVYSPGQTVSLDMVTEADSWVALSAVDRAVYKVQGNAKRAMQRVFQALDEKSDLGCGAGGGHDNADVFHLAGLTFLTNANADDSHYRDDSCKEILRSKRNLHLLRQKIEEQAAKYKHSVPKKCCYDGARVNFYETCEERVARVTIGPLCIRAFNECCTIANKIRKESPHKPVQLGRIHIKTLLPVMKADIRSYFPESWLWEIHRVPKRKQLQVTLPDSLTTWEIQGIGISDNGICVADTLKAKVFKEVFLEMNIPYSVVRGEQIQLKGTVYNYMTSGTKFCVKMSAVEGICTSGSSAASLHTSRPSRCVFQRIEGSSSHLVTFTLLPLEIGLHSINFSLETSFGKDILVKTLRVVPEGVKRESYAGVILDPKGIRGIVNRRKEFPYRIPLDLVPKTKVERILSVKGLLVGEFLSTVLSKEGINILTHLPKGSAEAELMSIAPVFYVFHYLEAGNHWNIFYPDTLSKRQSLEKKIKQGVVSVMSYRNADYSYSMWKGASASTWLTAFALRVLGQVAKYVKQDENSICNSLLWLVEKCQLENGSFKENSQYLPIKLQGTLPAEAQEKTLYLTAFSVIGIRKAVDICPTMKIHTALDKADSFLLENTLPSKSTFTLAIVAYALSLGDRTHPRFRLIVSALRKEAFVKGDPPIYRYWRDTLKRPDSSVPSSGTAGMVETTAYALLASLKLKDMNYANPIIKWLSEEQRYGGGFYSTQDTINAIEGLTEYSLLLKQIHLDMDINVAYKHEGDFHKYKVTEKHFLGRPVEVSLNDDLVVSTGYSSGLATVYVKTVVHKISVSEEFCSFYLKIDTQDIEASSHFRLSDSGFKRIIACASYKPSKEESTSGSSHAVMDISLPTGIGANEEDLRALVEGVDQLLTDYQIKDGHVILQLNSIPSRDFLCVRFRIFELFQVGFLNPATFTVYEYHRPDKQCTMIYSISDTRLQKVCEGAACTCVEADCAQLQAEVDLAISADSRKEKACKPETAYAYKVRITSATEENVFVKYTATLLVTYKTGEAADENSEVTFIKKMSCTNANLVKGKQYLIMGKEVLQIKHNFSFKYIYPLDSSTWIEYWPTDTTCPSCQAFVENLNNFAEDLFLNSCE

CSCC[C@@H]1NC(=O)[C@@H]2CCCN2C(=O)[C@H](CCSC)NC(=O)[C@H](CO)NC(=O)[C@H](Cc2c[nH]cn2)NC(=O)CNC(=O)[C@H](CO)NC(=O)[C@H](Cc2ccccc2)NC(=O)[C@H](CCCNC(=N)N)NC(=O)[C@H](CCC(=O)O)NC(=O)[C@H](Cc2ccccc2)NC(=O)[C@H](C(C)C)NC1=O [Cp1] (cyclo(HSMPMVFERFSG))
kon (mouse C5; pH 7.4, read-out: Ka vs mC5 (SPR)): 105000 M⁻¹ s⁻¹
koff (mouse C5; read-out: Kd (dissociation rate) vs mC5 (SPR)): 0.0745 s⁻¹
blockade of Cy5-C5a binding to mouse neutrophils [1]: validated the blocking efficacy
specificity of blocking the C5a-C5aR1 axis (C5a-C5aR1): selective blockade of the C5a‒C5aR1 interaction
decrease of plasma neutrophil elastase (NE) (CLP model mice; ELISA): 100%
decrease of plasma cfDNA (CLP model mice; qPCR): 68%
decrease in plasma CCL2 level (CLP-induced septic mice [2]; [5]): 21.7 fold
decrease in plasma CCL3 level (CLP-induced septic mice [2]; [5]): 81.9 fold
decrease in plasma CCL4 level (CLP-induced septic mice [2]; [5]): 24.8 fold
decrease in plasma CCL5 level (CLP-induced septic mice [2]; [5]): 18.6 fold
decrease in plasma CCL7 level (CLP-induced septic mice [2]; [5]): 102.3 fold
decrease in plasma CXCL1 level (CLP-induced septic mice [2]; [5]): 61.7 fold
decrease in plasma CXCL5 level (CLP-induced septic mice [2]; [5]): 4.3 fold
decrease in plasma IL-1β level vs CLP group (CLP-induced septic mice [2]; [5]): 94%
decrease in plasma IL-6 level vs CLP group (CLP-induced septic mice [2]; [5]): 99%
decrease in plasma TNF-α level vs CLP group (CLP-induced septic mice [2]; [5]): 86%
reduction in plasma IL-1β level (CLP-induced septic mice [2]; 100 μg/20 g, Luminex (Fig. 4a)): 18.6 fold
expression of inflammatory factors and chemokines in plasma, high dose (CLP-induced septic mice [2]; 300 μg of Cp1): effectively suppressed
plasma IL-17A, IFN-γ, GM-CSF, and CX3CL1 levels (CLP-induced septic mice [2]; 24 h after CLP surgery): significantly decreased
lowest effective dose with significant pharmacological activity (CLP-induced septic mice [2]; preliminary titrations): 100 μg
decrease of CCL2 in PLF (CLP-induced septic mice [3]; [6]): 96%
decrease of CCL3 in PLF (CLP-induced septic mice [3]; [6]): 87%
decrease of CCL5 in PLF (CLP-induced septic mice [3]; [6]): 89%
decrease of CCL7 in PLF (CLP-induced septic mice [3]; [6]): 69%
decrease of CCL12 in PLF (CLP-induced septic mice [3]; [6]): 90%
decrease of CXCL1 in PLF (CLP-induced septic mice [3]; [6]): 75%
decrease of CXCL5 in PLF (CLP-induced septic mice [3]; [6]): 94%
decrease of IL-1β in PLF (CLP-induced septic mice [3]; [6]): 62%
decrease of IL-6 in PLF (CLP-induced septic mice [3]; [6]): 73%
decrease of TNF-α in PLF (CLP-induced septic mice [3]; [6]): 77%
expression of inflammatory factors and chemokines in PLF, high dose (CLP-induced septic mice [3]; 300 μg of Cp1): effectively suppressed
attenuation of IL-6 in PLF (CLP-induced septic mice [3]; CLP-induced septic mice, first of four 'corresponding' values): 3.7 fold
attenuation of CXCL1 in PLF (CLP-induced septic mice [3]; CLP-induced septic mice, fourth of four 'corresponding' values): 4.3 fold
attenuation of CCL2 in PLF (CLP-induced septic mice [3]; CLP-induced septic mice, third of four 'corresponding' values): 25 fold
LDH and LAC levels (CLP-induced septic mice [4]; 100 μg/20 g): marked reduction
coagulation function parameters (PT, APTT, TT, Fbg) (CLP-induced septic mice [4]; 100 μg/20 g): attenuated the sepsis-induced changes in the clotting and fibrinolytic systems
serum ALT and AST levels (liver function) (CLP-induced septic mice [4]; 100 μg/20 g): effectively mitigated the increase
serum UREA and CREA levels (kidney injury) (CLP-induced septic mice [4]; 100 μg/20 g, vs untreated CLP mice): significantly lower
lung injury, H&E pathological sections (CLP-induced septic mice [4]): significantly ameliorated sepsis-induced pulmonary vascular leakage
